One test has as its system MDA-MB-468 cells. Kind of test: In vitro anticancer assay against MDA-MB-468 cells. It is filed as cell-based. To be noted: for inhibition at 50 µM: MDA-MB-468, 50 μM; for inhibition at 50 µM / inhibition at 0.5 µM / inhibition at 5 µM: read-out: % Inhibition at 0.5, 5, 50 μM; for inhibition at 0.5 µM: MDA-MB-468, 0.5 μM; for inhibition at 5 µM: MDA-MB-468, 5 μM. How it is done: The anticancer activities of the novel asymmetrical marinopyrroles described herein were evaluated against MDA-MB-468 cells (Table 1). IC50 values are reported in μM.

Another test has as its target Bcl-2 (Homo sapiens, UniProt P10415). To be noted: Tse et al. 2008; cited from earlier work.
The next test has as its target Mcl-1 (Homo sapiens, UniProt Q07820). To be noted: Tse et al. 2008; cited from earlier work.
A further test has as its target Bcl-XL (Homo sapiens, UniProt Q07817). To be noted: Tse et al. 2008; cited from earlier work.
The mark [1] stands for this setting: estimated from % inhibition at 0.5, 5, 50 μM, read-out: Est. IC50.
Where [2] appears, read: mean of the determinations, read-out: Mean IC50.
The mark [3] stands for this setting: single determinations, read-out: IC50.
The mark [4] stands for this setting: Homo sapiens, MDA-MB-468, mean of the determinations, read-out: Mean IC50.
Setting [5] is: Homo sapiens, MDA-MB-468, single determinations, read-out: IC50.
Setting [6] is: Homo sapiens, MDA-MB-468, estimated from % inhibition at 0.5, 5, 50 μM, read-out: Est. IC50.

Several values for one entry are separate records, joined by “and”; a condition that tells them apart may be missing. Equal values may be shown once. Read-outs that look alike come from different tables or passages of the source.

Sequence of Bcl-2 (P10415 whole entry, species assumed): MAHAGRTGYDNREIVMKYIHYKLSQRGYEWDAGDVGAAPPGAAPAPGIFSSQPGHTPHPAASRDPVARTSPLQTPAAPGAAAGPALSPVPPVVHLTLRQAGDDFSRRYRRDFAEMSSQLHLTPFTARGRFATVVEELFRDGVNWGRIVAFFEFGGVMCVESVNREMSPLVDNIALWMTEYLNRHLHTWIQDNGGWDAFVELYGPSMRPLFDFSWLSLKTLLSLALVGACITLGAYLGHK
Sequence of Bcl-XL (Q07817 whole entry, species assumed): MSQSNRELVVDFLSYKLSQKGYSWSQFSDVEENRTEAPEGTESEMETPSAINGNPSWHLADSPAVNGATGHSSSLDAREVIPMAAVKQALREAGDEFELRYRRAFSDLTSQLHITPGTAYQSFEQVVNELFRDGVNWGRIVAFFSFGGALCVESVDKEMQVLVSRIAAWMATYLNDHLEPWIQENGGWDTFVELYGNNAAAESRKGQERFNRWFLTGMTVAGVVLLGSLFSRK
Sequence of Mcl-1 (Q07820 whole entry, species assumed): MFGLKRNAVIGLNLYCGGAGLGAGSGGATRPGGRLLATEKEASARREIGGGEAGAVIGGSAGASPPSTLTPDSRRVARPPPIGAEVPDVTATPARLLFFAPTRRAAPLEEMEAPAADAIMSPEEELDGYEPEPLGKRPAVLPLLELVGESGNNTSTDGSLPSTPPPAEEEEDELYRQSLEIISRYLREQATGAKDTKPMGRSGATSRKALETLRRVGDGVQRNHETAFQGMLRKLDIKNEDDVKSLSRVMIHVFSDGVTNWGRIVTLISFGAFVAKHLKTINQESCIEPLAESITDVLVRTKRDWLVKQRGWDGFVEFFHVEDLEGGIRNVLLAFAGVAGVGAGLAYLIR

On to `O=C(c1ccccc1O)c1[nH]c(Cl)c(Cl)c1-n1c(C(=O)c2ccc(F)cc2[O-])cc(Cl)c1Cl.[Na+]` [Compound 31], for which the entries for the “% Inhibition at 0.5, 5, 50 μM” value in the test on MDA-MB-468 cells (0.5 μM), in the test on MDA-MB-468 cells (5 μM) and in the test on MDA-MB-468 cells (50 μM) were 5.6%, 63.5% and 99.4%, respectively. Further, the IC50 in the test with MDA-MB-468 cells (setting [1]) was 2000 nM; with MDA-MB-468 cells (setting [2]) it was 3150 nM; in the test with MDA-MB-468 cells (setting [3]), 3970 nM and 2330 nM.
For `O=C(c1ccccc1O)c1[nH]c(Cl)c(Cl)c1-n1c(C(=O)c2c(O)cccc2F)cc(Cl)c1Cl` [Compound 32], the “% Inhibition at 0.5, 5, 50 μM” value in the test with MDA-MB-468 cells (0.5 μM) was 0%; with MDA-MB-468 cells (50 μM), 87.7%. The concentration for half-maximal inhibition (IC50) in the test with MDA-MB-468 cells (setting [1]) was 12000 nM.
`O=C(c1ccccc1O)c1[nH]c(Cl)c(Cl)c1-n1c(C(=O)c2ccc(Cl)cc2O)cc(Cl)c1Cl` [Compound 2, (4-Chloro-2-hydroxyphenyl)(4,4′,5,5′-tetrachloro-2′-(2-hydroxybenzoyl)-1′H-1,3′-bipyrrol-2-yl)methanone]: the results for the IC50 in the test with MDA-MB-468 cells (setting [4]), with MDA-MB-468 cells (setting [5]) and with MDA-MB-468 cells (setting [3]) were 1450 nM, 1720 nM and 1170 nM, respectively.
In the case of `COc1ccc(C(=O)c2[nH]c(Cl)c(Cl)c2-n2c(C(=O)c3ccc(OC)cc3)cc(Cl)c2Cl)cc1` [Compound 39], the IC50 in the test on MDA-MB-468 cells (setting [5]) is 18300 nM.
Regarding `O=C(c1ccccc1O)c1[nH]c(Cl)c(Cl)c1-n1c(C(=O)c2c([O-])cccc2F)cc(Cl)c1Cl.[Na+]` [Compound 27], the “% Inhibition at 0.5, 5, 50 μM” value in the test on MDA-MB-468 cells (0.5 μM) was found to be 3.9%. In addition, the inhibition at 50 µM with MDA-MB-468 cells (Homo sapiens) came out at 96.3%. In addition, in the test with MDA-MB-468 cells (setting [1]), the IC50 was 25000 nM.
Take `O=C(c1ccccc1O)c1[nH]c(Cl)c(Cl)c1-n1c(C(=O)c2cc(Br)ccc2O)cc(Cl)c1Cl` [Compound 33]: in the test with MDA-MB-468 cells (Homo sapiens), the inhibition at 0.5 µM is 10.8%, the inhibition at 5 µM came out at 58.7% and the inhibition at 50 µM is 99.3%. Besides, the 50% inhibitory concentration (IC50) with MDA-MB-468 cells (setting [6]) is 2000 nM. The half-inhibitory concentration (IC50) in the test with MDA-MB-468 cells (setting [5]) turned out to be 3870 nM.
With `O=C(c1ccccc1O)c1[nH]c(Cl)c(Cl)c1-n1c(C(=O)c2ccccc2O)cc(Cl)c1Cl` [(+)-Marinopyrrole A, reference compound], the IC50 with MDA-MB-468 cells (setting [2]) was 1880 nM; in the test with MDA-MB-468 cells (setting [3]), 2140 nM and 1640 nM.
For `O=C(c1ccccc1O)c1[nH]c(Cl)c(Cl)c1-n1c(C(=O)c2ccc(F)cc2O)cc(Cl)c1Cl` [Compound 30], the inhibition at 0.5 µM in the test with MDA-MB-468 cells (Homo sapiens) was 10.8%. The inhibition at 5 µM in the test with MDA-MB-468 cells (Homo sapiens) was 78.6%. For the same compound, the inhibition at 50 µM with MDA-MB-468 cells (Homo sapiens) came to 94.7%. Further, the IC50 was 1000 nM with MDA-MB-468 cells (setting [6]), 1040 nM in the test on MDA-MB-468 cells (setting [4]), 940 nM in the test on MDA-MB-468 cells (setting [5]) and 1140 nM with MDA-MB-468 cells (setting [3]).
As for `O=C(c1ccccc1O)c1[nH]c(Cl)c(Cl)c1-n1c(C(=O)c2cc(F)ccc2O)cc(Cl)c1Cl` [Compound 8], the figures for the IC50 with MDA-MB-468 cells (setting [4]), in the test with MDA-MB-468 cells (setting [5]) and with MDA-MB-468 cells (setting [3]) were 2140 nM, 2230 nM and 2050 nM, respectively.
On to `COc1cc(OC)c(C(=O)c2cc(Cl)c(Cl)n2-c2c(C(=O)c3ccccc3OC)[nH]c(Cl)c2Cl)cc1Cl` [Compound 9], for which the IC50 in the test with MDA-MB-468 cells (setting [5]) came to 20400 nM.
For `O=C(c1ccccc1O)c1[nH]c(Cl)c(Cl)c1-n1c(C(=O)c2cc(Cl)c3ccccc3c2O)cc(Cl)c1Cl` [Compound 12], the half-maximal inhibitory concentration (IC50) with MDA-MB-468 cells (setting [4]) is 1890 nM; in the test on MDA-MB-468 cells (setting [5]), 1900 nM.
For `COc1ccccc1C(=O)c1[nH]c(Cl)c(Cl)c1-n1c(C(=O)c2cccc3ccccc23)cc(Cl)c1Cl` [Compound 35], in the test on MDA-MB-468 cells (setting [5]), the IC50 came to 10500 nM.
For `CCOC(=O)c1cc(Cl)c(Cl)n1-c1c(C(=O)c2ccccc2O)[nH]c(Cl)c1Cl` [Compound 38], the values for the IC50 in the test with MDA-MB-468 cells (setting [4]), with MDA-MB-468 cells (setting [5]) and in the test on MDA-MB-468 cells (setting [3]) were 2090 nM, 2730 nM and 1440 nM, respectively.
Consider `CCOC(=O)c1[nH]c(Cl)c(Cl)c1-n1c(C(=O)c2ccccc2O)cc(Cl)c1Cl` [Compound 37], for which, in the test on MDA-MB-468 cells (setting [5]), the concentration for half-maximal inhibition (IC50) was 15700 nM.
For `O=C(c1ccccc1O)c1[nH]c(Cl)c(Cl)c1-n1c(C(=O)c2ccccc2O)cc(Cl)c1Cl` (racemic) [Racemic Marinopyrrole A, reference compound], the IC50 in the test on MDA-MB-468 cells (setting [2]) was 2030 ± 180 nM; with MDA-MB-468 cells (setting [3]), 2190 nM and 1840 nM and 2070 nM.
As for `CN(C)CC[C@H](CSc1ccccc1)Nc1ccc(S(=O)(=O)NC(=O)c2ccc(N3CCN(Cc4ccccc4-c4ccc(Cl)cc4)CC3)cc2)cc1[N+](=O)[O-]` [ABT-737], the “concentration that inhibits Bcl-2” value at Bcl-2 is listed as “subnanomolar concentrations”. For the same compound, the “activity on Mcl-1” value on Mcl-1 is “only weakly target Mcl-1”. Also, the “concentration that inhibits Bcl-XL” value on Bcl-XL is reported as “subnanomolar concentrations”.
Take `O=C(c1ccccc1O)c1[nH]c(Cl)c(Cl)c1-n1c(C(=O)c2ccccc2O)cc(Cl)c1Cl` [(−)-Marinopyrrole A, reference compound]: the IC50 with MDA-MB-468 cells (setting [2]) is 3170 nM; in the test on MDA-MB-468 cells (setting [3]) it was 3470 nM and 2870 nM.
For `O=C(c1ccccc1O)c1[nH]c(Cl)c(Cl)c1-n1c(C(=O)c2cc3ccccc3c(Cl)c2O)cc(Cl)c1Cl` [Compound 10], the figures for the IC50 in the test with MDA-MB-468 cells (setting [4]), in the test on MDA-MB-468 cells (setting [5]) and with MDA-MB-468 cells (setting [3]) were 1700 nM, 1940 nM and 1460 nM, respectively.
As for `O=C(c1ccccc1O)c1[nH]c(Cl)c(Cl)c1-n1c(C(=O)c2cc(Cl)ccc2O)cc(Cl)c1Cl` [Compound 1, (5-Chloro-2-hydroxyphenyl)(4,4′,5,5′-tetrachloro-2′-(2-hydroxybenzoyl)-1′H-1,3′-bipyrrol-2-yl)methanone], in the test on MDA-MB-468 cells (Homo sapiens), the inhibition at 0.5 µM stood at 1.6% and the inhibition at 50 µM is 98.3%. The half-maximal inhibitory concentration (IC50) with MDA-MB-468 cells (setting [6]) is 9000 nM.
With `COc1ccccc1C(=O)c1[nH]c(Cl)c(Cl)c1-n1c(C(=O)c2cc(F)ccc2OC)cc(Cl)c1Cl` [Compound 7], the IC50 was determined as 11000 nM in the test with MDA-MB-468 cells (setting [4]), 11700 nM in the test with MDA-MB-468 cells (setting [5]) and 10200 nM with MDA-MB-468 cells (setting [3]).
Consider `O=C(c1ccccc1O)c1[nH]c(Cl)c(Cl)c1-n1c(C(=O)c2cccc(Cl)c2O)cc(Cl)c1Cl` [Compound 3, (3-Chloro-2-hydroxyphenyl)(4,4′,5,5′-tetrachloro-2′-(2-hydroxybenzoyl)-1′H-1,3′-bipyrrol-2-yl)methanone], for which, in the test on MDA-MB-468 cells (Homo sapiens), the inhibition at 0.5 µM came out at 7%. Besides, the inhibition at 5 µM in the test on MDA-MB-468 cells (Homo sapiens) is 83.4%. In addition, the inhibition at 50 µM in the test with MDA-MB-468 cells (Homo sapiens) was 100%. Also, the concentration for half-maximal inhibition (IC50) is 1000 nM with MDA-MB-468 cells (setting [6]), 2170 nM with MDA-MB-468 cells (setting [4]), 1950 nM with MDA-MB-468 cells (setting [5]) and 2390 nM in the test on MDA-MB-468 cells (setting [3]).
For `COc1ccccc1C(=O)c1[nH]c(Cl)c(Cl)c1-n1c(C(=O)c2cc(Cl)c3ccccc3c2O)cc(Cl)c1Cl` [Compound 11], in the test with MDA-MB-468 cells (setting [5]), the IC50 stood at 10700 nM.
With `COc1ccc(F)cc1C(=O)c1cc(Cl)c(Cl)n1-c1c(C(=O)O)[nH]c(Cl)c1Cl` [Compound 34], in the test on MDA-MB-468 cells (setting [5]), the concentration for half-maximal inhibition (IC50) amounted to 33500 nM.
`COc1ccccc1C(=O)c1[nH]c(Cl)c(Cl)c1-n1c(C(=O)c2cccc(Cl)c2O)cc(Cl)c1Cl` [Compound 21]: in the test on MDA-MB-468 cells (Homo sapiens), the inhibition at 0.5 µM was -0.4% and the inhibition at 50 µM was determined as 99.1%. In addition, the half-inhibitory concentration (IC50) with MDA-MB-468 cells (setting [6]) was 25000 nM.
`CC1(C)CCC(c2ccc(Cl)cc2)=C(CN2CCN(c3ccc(C(=O)NS(=O)(=O)c4ccc(N[C@H](CCN5CCOCC5)CSc5ccccc5)c(S(=O)(=O)C(F)(F)F)c4)cc3)CC2)C1` [ABT-263]: the “concentration that inhibits Bcl-2” value at Bcl-2 is “subnanomolar concentrations”. Moreover, at Mcl-1, the “activity on Mcl-1” value is on record as “only weakly target Mcl-1”. The “concentration that inhibits Bcl-XL” value on Bcl-XL is recorded as “subnanomolar concentrations”.
On to `COc1ccccc1C(=O)c1[nH]c(Cl)c(Cl)c1-n1c(C(=O)c2cc(F)ccc2O)cc(Cl)c1Cl` [Compound 25], for which, in the test with MDA-MB-468 cells (Homo sapiens), the inhibition at 0.5 µM came to 2.4% and the inhibition at 50 µM came out at 95.7%. Further, the IC50 in the test with MDA-MB-468 cells (setting [6]) was 28000 nM.
As for `COc1ccccc1C(=O)c1[nH]c(Cl)c(Cl)c1-n1c(C(=O)c2ccc(Cl)cc2OC)cc(Cl)c1Cl` [Compound 5, (4-Chloro-2-methoxyphenyl)(4,4′,5,5′-tetrachloro-2′-(2-methoxybenzoyl)-1′H-[1,3′-bipyrrole]-2-yl)methanone], the IC50 in the test with MDA-MB-468 cells (setting [4]) is 13200 nM; in the test with MDA-MB-468 cells (setting [5]), 14000 nM; with MDA-MB-468 cells (setting [3]) it was 12400 nM.

One may read the % Inhibition as the drop in the measured response relative to a control, in per cent. Low readings indicate a weak effect, high ones a strong effect. The term IC50 denotes the concentration that gives 50% inhibition. In general, inhibition refers to the change of the read-out against control, counted positive when it falls.

The record behind these values is patent publication US9340501B2, “Marinopyrrole derivatives as anticancer agents” (H. LEE MOFFITT CANCER CENTER AND RESEARCH INSTITUTE, INC., priority 2012, dated 2016).
